Data reported in patent publication US12338237B2, “Derivatives having 1,2,3,4-tetrahydronaphthalene moiety or pharmaceutically acceptable salt thereof and pharmaceutical compositions comprising the same” (YUHAN CORPORATION, priority 2019, dated 2025).
Like-named read-outs stand apart in the source and are kept apart here.

Legend:
GM1 production = test: cells; format: cell-based
[1] = target: glucosylceramide synthase (GCS) (Homo sapiens (Human), UniProt Q16739); test: Evaluation of inhibitory activities against GCS (enzyme reaction with A549 cell lysate, NBD C6-ceramide, HPLC fluorescence); format: biochemical; settings: GCS activity in A549 cell lysate, 37° C. for 90 minutes
Procedure: Ibiglustat, known as a GCS inhibitor, was used as a control.
After the cells attached to the culture dish were washed with phosphate buffered saline (PBS), the cells were scraped off with a cell scraper and then centrifuged (4000 rpm, 3 min, 4° C.) to collect the cells in a 50 ml tube. The cell pellets were suspended in a lysis buffer (50 mM HEPES, pH 7.3, containing 1× the protease/phosphatase inhibitor cocktail), lysed by sonication, and then the lysate was centrifuged (13000 rpm, 10 min, 4° C.). The obtained supernatant was used for the quantitative analysis of proteins. The amount of proteins was measured using the BCA protein assay kit, using bovine serum albumin as a standard.
Enzymatic reactions were initiated by sequentially adding the following reaction materials to a 96 deep-well plate. Thereafter, the enzymatic reactions were performed at 37° C. for 90 minutes.
The enzymatic reactions were stopped by adding 100 μl of chloroform/methanol (2:1, v/v). After vortexing for 15 seconds, each mixture was centrifuged (4000 rpm, 10 min, 18° C.). The lower layer (50 μl) was transferred to a new 96 deep-well plate and dried with a reduced concentrator.
Data analysis was performed by the following equations. % Area (Sample)=Area (GlcCer)/[Area (Cer)+Area (GlcCer)]×100 % GCS activity=[Area(Sample)−Area(ibiglustat)]/[Area(DMSO)−Area(ibiglustat)]×100

Chain of glucosylceramide synthase (GCS) (Q16739 whole entry, looked up): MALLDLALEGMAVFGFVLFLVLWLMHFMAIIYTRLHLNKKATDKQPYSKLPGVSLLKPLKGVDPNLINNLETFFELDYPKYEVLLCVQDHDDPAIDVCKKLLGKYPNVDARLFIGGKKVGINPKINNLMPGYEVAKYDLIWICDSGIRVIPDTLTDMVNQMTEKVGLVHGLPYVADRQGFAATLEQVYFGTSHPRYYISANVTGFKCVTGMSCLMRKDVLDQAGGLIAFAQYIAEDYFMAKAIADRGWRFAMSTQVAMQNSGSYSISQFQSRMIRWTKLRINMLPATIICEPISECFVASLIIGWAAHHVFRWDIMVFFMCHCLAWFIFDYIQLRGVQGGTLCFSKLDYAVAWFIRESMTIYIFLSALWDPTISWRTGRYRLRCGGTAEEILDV

O=C(NC1CCCc2cc(-c3ccc(F)cc3)ccc21)O[C@@H]1CN2CCC1CC2 (stereo partly drawn) [Example 1, (S)-quinuclidin-3-yl (6-(4-fluorophenyl)-1,2,3,4-tetrahydronaphthalen-1-yl)carbamate]
IC50 (GM1 production; Homo sapiens, Jurkat, 72 h): 0.0626 µM | IC50 [1]: 0.00678 µM

O=C(NC1CCCc2cc(-c3ccc(Cl)cc3)ccc21)O[C@@H]1CN2CCC1CC2 (stereo partly drawn) [Example 2, (S)-quinuclidin-3-yl (6-(4-chlorophenyl)-1,2,3,4-tetrahydronaphthalen-1-yl)carbamate]
IC50 (GM1 production; Homo sapiens, Jurkat, 72 h): 0.0545 µM | IC50 [1]: 0.00304 µM

O=C(NC1CCCc2cc(-c3ccc(C(F)(F)F)cc3)ccc21)O[C@@H]1CN2CCC1CC2 (stereo partly drawn) [Example 3, (S)-quinuclidin-3-yl (6-(4-(trifluoromethyl)phenyl)-1,2,3,4-tetrahydronaphthalen-1-yl)carbamate]
IC50 (GM1 production; Homo sapiens, Jurkat, 72 h): 0.0587 µM | IC50 [1]: 0.0023 µM

O=C(NC1CCCc2cc(-c3ccc(OC(F)(F)F)cc3)ccc21)O[C@@H]1CN2CCC1CC2 (stereo partly drawn) [Example 4, (S)-quinuclidin-3-yl (6-(4-(trifluoromethoxy)phenyl)-1,2,3,4-tetrahydronaphthalen-1-yl)carbamate]
IC50 (GM1 production; Homo sapiens, Jurkat, 72 h): 0.0349 µM | IC50 [1]: 0.00142 µM

O=C(NC1CCCc2cc(-c3cccc(F)c3)ccc21)O[C@@H]1CN2CCC1CC2 (stereo partly drawn) [Example 5, (S)-quinuclidin-3-yl (6-(3-fluorophenyl)-1,2,3,4-tetrahydronaphthalen-1-yl)carbamate]
IC50 (GM1 production; Homo sapiens, Jurkat, 72 h): 0.0272 µM | IC50 [1]: 0.000989 µM

O=C(NC1CCCc2cc(-c3cccc(Cl)c3)ccc21)O[C@@H]1CN2CCC1CC2 (stereo partly drawn) [Example 6, (S)-quinuclidin-3-yl (6-(3-chlorophenyl)-1,2,3,4-tetrahydronaphthalen-1-yl)carbamate]
IC50 (GM1 production; Homo sapiens, Jurkat, 72 h): 0.0158 µM | IC50 [1]: 0.000697 µM

O=C(NC1CCCc2cc(-c3cccc(C(F)(F)F)c3)ccc21)O[C@@H]1CN2CCC1CC2 (stereo partly drawn) [Example 7, (S)-quinuclidin-3-yl (6-(3-(trifluoromethyl)phenyl)-1,2,3,4-tetrahydronaphthalen-1-yl)carbamate]
IC50 (GM1 production; Homo sapiens, Jurkat, 72 h): 0.0136 µM | IC50 [1]: 0.00169 µM

O=C(NC1CCCc2cc(-c3cccc(OC(F)(F)F)c3)ccc21)O[C@@H]1CN2CCC1CC2 (stereo partly drawn) [Example 8, (S)-quinuclidin-3-yl (6-(3-(trifluoromethoxy)phenyl)-1,2,3,4-tetrahydronaphthalen-1-yl)carbamate]
IC50 (GM1 production; Homo sapiens, Jurkat, 72 h): 0.0124 µM | IC50 [1]: 0.0021 µM

O=C(NC1CCCc2cc(-c3ccccc3F)ccc21)O[C@@H]1CN2CCC1CC2 (stereo partly drawn) [Example 9, (S)-quinuclidin-3-yl (6-(2-fluorophenyl)-1,2,3,4-tetrahydronaphthalen-1-yl)carbamate]
IC50 (GM1 production; Homo sapiens, Jurkat, 72 h): 0.0413 µM | IC50 [1]: 0.00265 µM

O=C(NC1CCCc2cc(-c3ccccc3Cl)ccc21)O[C@@H]1CN2CCC1CC2 (stereo partly drawn) [Example 10, (S)-quinuclidin-3-yl (6-(2-chlorophenyl)-1,2,3,4-tetrahydronaphthalen-1-yl)carbamate]
IC50 (GM1 production; Homo sapiens, Jurkat, 72 h): 0.0377 µM | IC50 [1]: 0.00256 µM

O=C(NC1CCCc2cc(-c3ccccc3C(F)(F)F)ccc21)O[C@@H]1CN2CCC1CC2 (stereo partly drawn) [Example 11, (S)-quinuclidin-3-yl (6-(2-(trifluoromethyl)phenyl)-1,2,3,4-tetrahydronaphthalen-1-yl)carbamate]
IC50 (GM1 production; Homo sapiens, Jurkat, 72 h): 0.0385 µM | IC50 [1]: 0.00818 µM

O=C(NC1CCCc2cc(-c3ccccc3OC(F)(F)F)ccc21)O[C@@H]1CN2CCC1CC2 (stereo partly drawn) [Example 12, (S)-quinuclidin-3-yl (6-(2-(trifluoromethoxy)phenyl)-1,2,3,4-tetrahydronaphthalen-1-yl)carbamate]
IC50 (GM1 production; Homo sapiens, Jurkat, 72 h): 0.0196 µM | IC50 [1]: 0.00928 µM

O=C(NC1CCCc2cc(-c3ccc(OC(F)F)cc3)ccc21)O[C@@H]1CN2CCC1CC2 (stereo partly drawn) [Example 13, (S)-quinuclidin-3-yl (6-(4-(difluoromethoxy)phenyl)-1,2,3,4-tetrahydronaphthalen-1-yl)carbamate]
IC50 (GM1 production; Homo sapiens, Jurkat, 72 h): 0.143 µM | IC50 [1]: 0.0235 µM

Cc1ccc(-c2ccc3c(c2)CCCC3NC(=O)O[C@@H]2CN3CCC2CC3)cc1 (stereo partly drawn) [Example 14, (S)-quinuclidin-3-yl (6-(p-tolyl)-1,2,3,4-tetrahydronaphthalen-1-yl)carbamate]
IC50 (GM1 production; Homo sapiens, Jurkat, 72 h): 0.0617 µM | IC50 [1]: 0.0088 µM

O=C(NC1CCCc2cc(-c3ccc(F)c(F)c3)ccc21)O[C@@H]1CN2CCC1CC2 (stereo partly drawn) [Example 15, (S)-quinuclidin-3-yl (6-(3,4-difluorophenyl)-1,2,3,4-tetrahydronaphthalen-1-yl)carbamate]
IC50 (GM1 production; Homo sapiens, Jurkat, 72 h): 0.0197 µM | IC50 [1]: 0.00688 µM

O=C(NC1CCCc2cc(-c3cc(F)ccc3F)ccc21)O[C@@H]1CN2CCC1CC2 (stereo partly drawn) [Example 16, (S)-quinuclidin-3-yl (6-(2,5-difluorophenyl)-1,2,3,4-tetrahydronaphthalen-1-yl)carbamate]
IC50 (GM1 production; Homo sapiens, Jurkat, 72 h): 0.034 µM | IC50 [1]: 0.00396 µM

O=C(NC1CCCc2cc(-c3cc(F)cc(F)c3)ccc21)O[C@@H]1CN2CCC1CC2 (stereo partly drawn) [Example 17, (S)-quinuclidin-3-yl (6-(3,5-difluorophenyl)-1,2,3,4-tetrahydronaphthalen-1-yl)carbamate]
IC50 (GM1 production; Homo sapiens, Jurkat, 72 h): 0.037 µM | IC50 [1]: 0.00575 µM

O=C(NC1CCCc2cc(-c3ccc(F)cc3F)ccc21)O[C@@H]1CN2CCC1CC2 (stereo partly drawn) [Example 18, (S)-quinuclidin-3-yl (6-(2,4-difluorophenyl)-1,2,3,4-tetrahydronaphthalen-1-yl)carbamate]
IC50 (GM1 production; Homo sapiens, Jurkat, 72 h): 0.0992 µM | IC50 [1]: 0.00541 µM

O=C(NC1CCCc2cc(-c3cccc(F)c3F)ccc21)O[C@@H]1CN2CCC1CC2 (stereo partly drawn) [Example 19, (S)-quinuclidin-3-yl (6-(2,3-difluorophenyl)-1,2,3,4-tetrahydronaphthalen-1-yl)carbamate]
IC50 (GM1 production; Homo sapiens, Jurkat, 72 h): 0.0674 µM | IC50 [1]: 0.00344 µM

O=C(NC1CCCc2cc(-c3ccc(F)c(F)c3F)ccc21)O[C@@H]1CN2CCC1CC2 (stereo partly drawn) [Example 20, (S)-quinuclidin-3-yl (6-(2,3,4-trifluorophenyl)-1,2,3,4-tetrahydronaphthalen-1-yl)carbamate]
IC50 (GM1 production; Homo sapiens, Jurkat, 72 h): 0.0844 µM | IC50 [1]: 0.00716 µM

O=C(NC1CCCc2cc(-c3cc(F)c(F)cc3F)ccc21)O[C@@H]1CN2CCC1CC2 (stereo partly drawn) [Example 21, (S)-quinuclidin-3-yl (6-(2,4,5-trifluorophenyl)-1,2,3,4-tetrahydronaphthalen-1-yl)carbamate]
IC50 (GM1 production; Homo sapiens, Jurkat, 72 h): 0.0421 µM | IC50 [1]: 0.00253 µM

O=C(NC1CCCc2cc(-c3ccc(Cl)c(Cl)c3)ccc21)O[C@@H]1CN2CCC1CC2 (stereo partly drawn) [Example 22, (S)-quinuclidin-3-yl (6-(3,4-dichlorophenyl)-1,2,3,4-tetrahydronaphthalen-1-yl)carbamate]
IC50 (GM1 production; Homo sapiens, Jurkat, 72 h): 0.0225 µM | IC50 [1]: 0.00842 µM

O=C(NC1CCCc2cc(-c3cc(Cl)ccc3Cl)ccc21)O[C@@H]1CN2CCC1CC2 (stereo partly drawn) [Example 23, (S)-quinuclidin-3-yl (6-(2,5-dichlorophenyl)-1,2,3,4-tetrahydronaphthalen-1-yl)carbamate]
IC50 (GM1 production; Homo sapiens, Jurkat, 72 h): 0.0277 µM | IC50 [1]: 0.0018 µM

O=C(NC1CCCc2cc(-c3cc(Cl)cc(Cl)c3)ccc21)O[C@@H]1CN2CCC1CC2 (stereo partly drawn) [Example 24, (S)-quinuclidin-3-yl (6-(3,5-dichlorophenyl)-1,2,3,4-tetrahydronaphthalen-1-yl)carbamate]
IC50 (GM1 production; Homo sapiens, Jurkat, 72 h): 0.0231 µM | IC50 [1]: 0.0091 µM

COCCOc1ccc(-c2ccc3c(c2)CCCC3NC(=O)O[C@@H]2CN3CCC2CC3)cc1 (stereo partly drawn) [Example 25, (S)-quinuclidin-3-yl (6-(4-(2-methoxyethoxy)phenyl)-1,2,3,4-tetrahydronaphthalen-1-yl)carbamate]
IC50 (GM1 production; Homo sapiens, Jurkat, 72 h): 0.0451 µM | IC50 [1]: 0.015 µM

COCOc1ccc(-c2ccc3c(c2)CCCC3NC(=O)O[C@@H]2CN3CCC2CC3)cc1 (stereo partly drawn) [Example 26, (S)-quinuclidin-3-yl (6-(4-(methoxymethoxy)phenyl)-1,2,3,4-tetrahydronaphthalen-1-yl)carbamate]
IC50 (GM1 production; Homo sapiens, Jurkat, 72 h): 0.0308 µM | IC50 [1]: 0.00661 µM

COCCOc1cccc(-c2ccc3c(c2)CCCC3NC(=O)O[C@@H]2CN3CCC2CC3)c1 (stereo partly drawn) [Example 27, (S)-quinuclidin-3-yl (6-(3-(2-methoxyethoxy)phenyl)-1,2,3,4-tetrahydronaphthalen-1-yl)carbamate]
IC50 (GM1 production; Homo sapiens, Jurkat, 72 h): 0.0303 µM | IC50 [1]: 0.00249 µM

COCOc1cccc(-c2ccc3c(c2)CCCC3NC(=O)O[C@@H]2CN3CCC2CC3)c1 (stereo partly drawn) [Example 28, (S)-quinuclidin-3-yl (6-(3-(methoxymethoxy)phenyl)-1,2,3,4-tetrahydronaphthalen-1-yl)carbamate]
IC50 (GM1 production; Homo sapiens, Jurkat, 72 h): 0.00531 µM | IC50 [1]: 0.00133 µM

COCCOc1ccccc1-c1ccc2c(c1)CCCC2NC(=O)O[C@@H]1CN2CCC1CC2 (stereo partly drawn) [Example 29, (S)-quinuclidin-3-yl (6-(2-(2-methoxyethoxy)phenyl)-1,2,3,4-tetrahydronaphthalen-1-yl)carbamate]
IC50 (GM1 production; Homo sapiens, Jurkat, 72 h): 0.155 µM | IC50 [1]: 0.00852 µM

COCOc1ccccc1-c1ccc2c(c1)CCCC2NC(=O)O[C@@H]1CN2CCC1CC2 (stereo partly drawn) [Example 30, (S)-quinuclidin-3-yl (6-(2-(methoxymethoxy)phenyl)-1,2,3,4-tetrahydronaphthalen-1-yl)carbamate]
IC50 (GM1 production; Homo sapiens, Jurkat, 72 h): 0.0714 µM | IC50 [1]: 0.00793 µM

O=C(NC1CCCc2ccc(-c3cccc(C(F)(F)F)c3)cc21)O[C@@H]1CN2CCC1CC2 (stereo partly drawn) [Example 60, (S)-quinuclidin-3-yl (7-(3-(trifluoromethyl)phenyl)-1,2,3,4-tetrahydronaphthalen-1-yl)carbamate]
IC50 [1]: 0.106 µM

CC1(C)CCc2cc(-c3cccc(F)c3F)ccc2C1NC(=O)O[C@@H]1CN2CCC1CC2 (stereo partly drawn) [Example 102, (S)-quinuclidin-3-yl (6-(2,3-difluorophenyl)-2,2-dimethyl-1,2,3,4-tetrahydronaphthalen-1-yl)carbamate]
IC50 (GM1 production; read-out: IC50): 0.00143 µM
